Results taken from patent US4289776A, “Xanthine derivatives” (Hoechst Aktiengesellschaft, priority 1973, dated 1981).

Assays:
muscular blood perfusion = test: Muscular blood perfusion by fluvography at the cat (i.v.); type: in vivo
Procedure: (§1) Animal tests were carried out with various oxoalkylxanthine derivatives, in which the toxicity in the mouse, the increase of cerebral and muscular blood perfusion at the cat and the fibrinolytic effect in vitro in the Hanging-Clot-test were measured. Furthermore the broncholytic effect of various compounds was tested.
(§2) 1. Cerebral and muscular blood perfusion by fluvography
(§3) These tests were performed at the cat according to K. Popendiker, I. Boksay and V. Bollmann ("Arzneimittel Forschung" vol. 21 (1971), page 1160).
(§4) The values obtained in the mentioned test 1 are given as Δλ and as half-life values in Table 2 and the results of tests 2 to 5 are enumerated in Table 3. In Table 2 Δλ is the change of blood perfusion.

isolated trancheal chain = test: Broncholytic effect at the isolated tracheal chain (isoprenaline reaction)
Procedure: 3. Broncholytic effect at the isolated trancheal chain
This test was performed according to J. C. Castillo and E. J. de Beer ("J. Pharm. Ther." vol. 90 (1947), page 104).

mouse [1] = conditions: known compounds; cited from earlier work
[2] = system: bronchospasm against histamine; test: Broncholytic effect at the narcotized guinea-pig, bronchospasm by histamine; type: in vivo; conditions: Cavia porcellus, iv, 2 min, 2 min. i.p.
Procedure: (§5) 2. Broncholytic effect at the narcotized guinea-pig
(§6) This test was performed according to H. Konsett and R. Rossler ("Archiv exp. Path. Pharmak." vol. 195 (1940), page 71).

human blood = test: Fibrinolytic effect in vitro, Hanging-Clot-test; type: biochemical; conditions: human blood
Procedure: This effect was measured by the Hanging-Clot-test according to K. N. von Kaulla ("Journ. med. Chem." vol. 8 (1965), page 164) in using human blood. The incubation time was 24 or 48 hours.

blood vascular system = conditions: known compounds; cited from earlier work
cerebral blood perfusion = test: Cerebral blood perfusion by fluvography at the cat (i.v.); type: in vivo
Procedure: as §1, §2, §3, §4

[3] = system: bronchospasm against acetylcholine; test: Broncholytic effect at the narcotized guinea-pig, bronchospasm by acetylcholine; type: in vivo; conditions: Cavia porcellus, iv, 2 min, 2 min. i.p.
Procedure: as §5, §6

[4] = system: cerebral blood circulation; test: Cerebral blood circulation after intraduodenal administration to narcotized cats; type: in vivo, cat
[5] = Toxicity in the mouse (LD50); conditions: in vivo, ip, mice, intraperitoneally, read-out: LD50 -value for mice
Procedure: (§7) The toxicity was determined as LD50 --range or as LD50 according to Litchfield and Wilcoxon ("J. Pharmacol. exp. Ther." 97 (1949), page 399) in the mouse.

mouse [6] = test: Toxicity in the mouse (LD50); conditions: in vivo, ip
Procedure: as §7

## CC(=O)CCCCn1c(=O)c2c(ncn2C)n(C)c1=O [Sample 8, 1-(5-Oxohexyl)-3,7-dimethylxanthine, reference compound]
Muscular blood perfusion; 1 mg/kg i.v.
  Muscular blood perfusion half-life: 1.10 min
  Muscular blood perfusion Δλ (change of blood perfusion): +0.02
Muscular blood perfusion; 5 mg/kg i.v.
  Muscular blood perfusion half-life: 3.30 min
  Muscular blood perfusion Δλ (change of blood perfusion): +0.03
Muscular blood perfusion; 10 mg/kg i.v.
  Muscular blood perfusion half-life: 2.80 min
  Muscular blood perfusion Δλ (change of blood perfusion): +0.15
Muscular blood perfusion; 20 mg/kg i.v.
  Muscular blood perfusion half-life: > 15 min
  Muscular blood perfusion Δλ (change of blood perfusion): +1.38
Isolated trancheal chain; concentration 3 × 10^-5
  Inhibition of isoprenaline reaction in %: 30%
Isolated trancheal chain; concentration 3 × 10^-6
  Inhibition of isoprenaline reaction in %: 0%
Isolated trancheal chain; concentration 10^-4
  Inhibition of isoprenaline reaction in %: 89%
Isolated trancheal chain; concentration 10^-5
  Inhibition of isoprenaline reaction in %: 5%
Mouse [1]
  Toxicity: low toxicity
[2]; 3 mg/kg i.v.
  change in vivo at 3 mg/kg: -4%
[2]; 5 mg/kg i.v.
  change in vivo at 5 mg/kg: -94%
[2]; 10 mg/kg i.v.
  change in vivo at 10 mg/kg: -83%
[2]; 20 mg/kg i.v.
  change in vivo at 20 mg/kg: -100%
Human blood; 24 hours incubation
  Minimum concentration for partial lysis: 100 mmol
Human blood; 48 hours incubation (bracket)
  Minimum concentration for partial lysis: 50 mmol
Blood vascular system
  Vascular dilatory action: vaso-dilatory effect
Cerebral blood perfusion; 1 mg/kg i.v.
  Cerebral blood perfusion half-life: 0.9 min
  Cerebral blood perfusion Δλ (change of blood perfusion): +0.44
Cerebral blood perfusion; 5 mg/kg i.v.
  Cerebral blood perfusion half-life: 2.4 min
  Cerebral blood perfusion Δλ (change of blood perfusion): +0.86
Cerebral blood perfusion; 10 mg/kg i.v.
  Cerebral blood perfusion half-life: 8.6 min
  Cerebral blood perfusion Δλ (change of blood perfusion): +1.15
[3]; 3 mg/kg i.v.
  change in vivo at 3 mg/kg: -15%
[3]; 10 mg/kg i.v.
  change in vivo at 10 mg/kg: -41%
[3]; 20 mg/kg i.v.
  change in vivo at 20 mg/kg: -72%

## CC(=O)CCCCn1cnc2c1c(=O)[nH]c(=O)n2C [Example 11, 3-methyl-7-(5-oxohexyl)-xanthine]
[4]
  Increase in cerebral blood circulation compared with ethylene-diamine-theophylline: by several times superior
  Increase in the cerebral blood circulation: significant and permanent increase in the cerebral blood circulation
[5]
  LD50: 1000 to 1500 mg/kg
Mouse [6]
  Compatibility compared with ethylene-diamine-theophylline: much more compatible
